Laboratory results published in the supplement of paper PMC10307832.

Legend:
Experiment in all cases: relative viability (nuclei count vs DMSO), 5 days (fraction); higher = more cells survive
AZD6482 + OSI-027 = compound: Cc1cc([C@@H](C)Nc2ccccc2C(=O)O)c2nc(N3CCOCC3)cc(=O)n2c1 [AZD6482] + COc1cccc2cc(-c3nc([C@H]4CC[C@H](C(=O)O)CC4)n4ncnc(N)c34)[nH]c12 [OSI-027] (partner 0.5 µM)
Method in brief: (§1)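 Values are medians from duplicate plates. Each reflects relative viability, defined as the nuclei count of treated wells over that of vehicle wells. Lung cancer cell lines in 1536-well plates were pin-tool dosed one day after seeding with one drug alone or with a fixed anchor-drug dose plus five library-drug doses (not always all listed) in √10 steps, then fixed, stained and imaged at 4× after 5 days.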

[1] = compound: COc1cc2nc(N3CCCN(C)CC3)nc(NC3CCN(Cc4ccccc4)CC3)c2cc1OC + C[C@@H](Oc1cc(-c2cnn(C3CCNCC3)c2)cnc1N)c1c(Cl)ccc(F)c1Cl [Crizotinib] (partner 1 µM)
Method in brief: as §1

[2] = compound: COc1cc2nc(N3CCCN(C)CC3)nc(NC3CCN(Cc4ccccc4)CC3)c2cc1OC + CCNC(=O)c1noc(-c2cc(C(C)C)c(O)cc2O)c1-c1ccc(CN2CCOCC2)cc1 [Luminespib] (partner 0.01 µM)
Method in brief: as §1

[3] = compound: COc1cc2nc(N3CCCN(C)CC3)nc(NC3CCN(Cc4ccccc4)CC3)c2cc1OC + Nc1nc2[nH]cc(CCc3ccc(C(=O)N[C@@H](CCC(=O)O)C(=O)O)cc3)c2c(=O)[nH]1 [Pemetrexed] (partner 0.2 µM)
Method in brief: as §1

Row | Cell Line | relative viability (AZD6482 + OSI-027; first compound 0.08 µM) | relative viability (AZD6482 + OSI-027; first compound 0.253 µM) | relative viability (AZD6482 + OSI-027; first compound 0.8 µM) | relative viability (AZD6482 + OSI-027; first compound 2.53 µM) | relative viability (AZD6482 + OSI-027; first compound 8 µM) | relative viability ([1]; first compound 0.2 µM) | relative viability ([1]; first compound 0.6325 µM) | relative viability ([1]; first compound 2 µM) | relative viability ([1]; first compound 6.325 µM) | relative viability ([2]; first compound 0.2 µM) | relative viability ([2]; first compound 0.6325 µM) | relative viability ([2]; first compound 2 µM) | relative viability ([2]; first compound 6.325 µM) | relative viability ([3]; first compound 0.2 µM) | relative viability ([3]; first compound 0.6325 µM) | relative viability ([3]; first compound 2 µM) | relative viability ([3]; first compound 6.325 µM)
1 | HOP-62 | 0.817 | 0.883 | 0.774 | 0.553 | 0.765 | 0.936 | 0.822 | 0.764 | 0.943 | 0.907 | 0.856 | 0.817 | 0.952 | 0.318 | 0.257 | 0.3 | 0.292
2 | IA-LM | – | – | – | – | – | – | 0.802 | 0.926 | 0.42 | – | – | – | – | – | – | – | –
3 | LC-2-ad | 0.734 | 0.757 | 0.807 | 0.581 | 0.565 | 0.398 | 0.484 | 0.475 | 0.43 | 0.961 | 0.973 | 1.21 | 1.06 | 0.301 | 0.27 | 0.268 | 0.264
4 | LCLC-97TM1 | 0.482 | 0.399 | 0.384 | 0.255 | 0.312 | 0.252 | – | 0.599 | 0.313 | 0.79 | 0.73 | 0.822 | 0.777 | 0.194 | 0.156 | 0.189 | 0.199
5 | LCLC-103H | 0.414 | 0.452 | 0.492 | 0.273 | 0.31 | 1 | 0.973 | 1.14 | 1.06 | 0.905 | 1.08 | 0.976 | 1.01 | 0.495 | 0.455 | 0.443 | 0.47
6 | LK-2 | 0.222 | 0.2 | 0.177 | 0.196 | 0.177 | 0.233 | 0.237 | 0.235 | 0.284 | 0.188 | 0.188 | 0.164 | 0.186 | 0.311 | 0.276 | 0.296 | 0.273
7 | LOU-NH91 | 0.606 | 0.702 | 0.66 | 0.455 | 0.579 | 0.701 | 0.742 | 0.668 | 0.778 | 0.383 | 0.295 | 0.359 | 0.367 | 0.411 | 0.393 | 0.401 | 0.398
8 | LU99A | 0.301 | 0.276 | 0.325 | 0.203 | 0.3 | 0.563 | 0.576 | 0.553 | 0.56 | 0.258 | 0.246 | 0.225 | 0.231 | 0.17 | 0.185 | 0.177 | 0.187
9 | LXF-289 | 0.825 | 0.643 | 0.772 | 0.559 | 0.615 | 0.812 | 0.8 | 0.824 | 0.786 | 0.592 | 0.651 | 0.729 | 0.676 | 0.924 | 0.879 | 0.999 | 0.828
10 | NCI-H23 | 0.592 | 0.512 | 0.592 | 0.364 | 0.302 | 0.417 | 0.556 | 0.59 | 0.546 | 0.223 | 0.209 | 0.206 | 0.187 | 0.66 | 0.695 | 0.918 | 0.703
11 | NCI-H322M | 0.523 | 0.497 | 0.531 | 0.317 | 0.414 | 0.873 | 1.01 | 0.973 | 0.915 | 0.766 | 0.943 | 0.799 | 0.832 | 0.606 | 0.623 | 0.581 | 0.584
12 | NCI-H358 | 0.711 | 0.557 | 0.662 | 0.257 | 0.312 | 0.495 | 0.642 | 0.903 | 0.639 | 0.506 | 0.275 | 0.434 | 0.208 | 0.174 | 0.168 | 0.17 | 0.173
13 | NCI-H441 | 0.669 | 0.4 | 0.627 | – | 0.508 | 0.656 | – | 0.59 | 0.701 | 0.318 | 0.368 | 0.334 | 0.584 | 0.256 | 0.264 | 0.246 | 0.276
14 | NCI-H460 | 0.631 | 0.589 | 0.543 | 0.326 | 0.292 | 0.833 | 0.878 | 0.893 | 0.313 | 0.0382 | 0.0418 | 0.0348 | 0.0281 | 0.063 | 0.0592 | 0.0662 | 0.0719
15 | NCI-H522 | 0.599 | 0.784 | 0.635 | 0.688 | 0.54 | – | – | – | – | 1.03 | 1.23 | 1.32 | 1.12 | 1.05 | 0.924 | 1.09 | 0.78
16 | NCI-H727 | 0.457 | 0.521 | 0.511 | 0.43 | 0.518 | 0.757 | 0.752 | 1.13 | 0.592 | 0.332 | 0.355 | 0.512 | 0.56 | – | – | – | –
17 | NCI-H1299 | – | – | – | – | – | 0.945 | 0.976 | 0.94 | 0.909 | – | – | – | – | – | – | – | –
18 | NCI-H1395 | 0.519 | 0.433 | 0.553 | 0.393 | 0.44 | – | – | – | – | 0.7 | 0.695 | 0.7 | 0.71 | 0.892 | 0.84 | 0.824 | 0.635
19 | NCI-H1648 | 0.297 | 0.268 | 0.245 | 0.228 | 0.276 | – | – | – | – | – | – | – | – | – | 0.904 | – | 0.791
20 | NCI-H1703 | – | – | – | – | – | 1 | 0.45 | 0.868 | 0.526 | – | – | – | – | – | – | – | –
21 | NCI-H1793 | 0.266 | 0.243 | 0.261 | 0.132 | 0.16 | – | – | – | – | 0.18 | 0.193 | 0.134 | 0.154 | 0.919 | 1.19 | 0.945 | 0.797
22 | NCI-H2342 | 0.542 | 0.586 | 0.568 | 0.448 | 0.471 | – | – | – | – | 0.689 | 0.673 | 0.677 | 0.75 | 0.81 | 0.742 | 0.741 | 0.761
23 | SW 900 | 0.45 | 0.471 | 0.433 | – | 0.492 | – | – | – | – | 0.143 | 0.188 | 0.18 | 0.156 | 0.484 | 0.504 | 0.491 | 0.505
